# Earlier results in US20200323813A1, “TREATMENT OF VIRAL HEMORRHAGIC FEVERS WITH COX-2 SELECTIVE NON-STEROIDAL ANTI-INFLAMMATORY DRUGS” (Tremeau Pharmaceuticals, Inc., priority 2019, published 2020).
# Tests used:
# [1] = oral once daily product
# [2] = versus non-selective NSAIDs
# [3] = tested on: platelet aggregation or bleeding time; details: doses up to 375 mg/day
compound,measurement,setting,value
"CS(=O)(=O)c1ccc(C2=C(c3ccccc3)C(=O)OC2)cc1 [Rofecoxib, 4-[4-(methylsulfonyl)phenyl]-3-phenyl-2(5H)-furanone]",half-live,[1],approximately 17 hours
same,median onset of action,acute pain settings,45 min
same,sustained efficacy (duration),single dose,24 h
same,GI tolerability and safety events,[2],significant improvements
same,COX-2 versus COX-1 selectivity,COX-2 versus COX-1,35 fold
same,effect on bleeding time,[3],not affect
same,effect on platelet aggregation,[3],not affect
